Laboratory results published in patent publication US9107918B2, “Method for determining sensitivity to irinotecan and use thereof” (Kabushiki Kaisha Yakult Honsha, priority 2009, dated 2015).
Counter-ions that a name gives are not always drawn.

Key:
Format in all cases: cell-based, human
[1] = tested on: acquired CPT-11 resistant cell line PC-6/DQ2-2; assay: MTT growth inhibition, PC-6/DQ2-2; details: PC-6/DQ2-2 cells, 72 hours drug exposure
Description: (§1) The sensitivity, to irinotecan and SN-38, of the 19 cultured human tumor cell lines which had been subjected to comprehensive gene expression analysis was determined through the MTT (methylthiazol tetrazolium bromide) method. Specifically, 4×10^3 cells/well of each cell line and 80 μL/well of culture medium (10% fetal serum-added RPMI1640 medium) were added to each well of a 96-well microplate (Nunclon; Nunc, Roskilde, Denmark), and culturing was performed for 24 hours in an incubator at 37° C. under 5% CO2. Thereafter, the culture medium (10% fetal serum-added RPMI1640 medium) was renewed, and SN-38 or irinotecan was added thereto at various concentrations. Culturing was further performed for 72 hours in an incubator at 37° C. under 5% CO2. […] By means of a microplate reader (Maxline Microplate Reader, Molecular Devices, Sunnyvale, Calif.), absorbance at 570 to 650 nm was measured. An average absorbance of wells of culture medium was subtracted from the absorbance of each well of the drug-treatment group, and the obtained values of the wells were averaged. Similarly, the average absorbance of wells of culture medium was subtracted from the absorbance of each well of the control group (non-drug-treatment group), and the obtained values of the wells were averaged. […]

[2] = tested on: esophageal cancer cell line HEC-46; assay: MTT growth inhibition, HEC-46; details: HEC-46 cells, 72 hours drug exposure
Description: as §1

[3] = tested on: colon cancer cell line HCC-50; assay: MTT growth inhibition, HCC-50; details: HCC-50 cells, 72 hours drug exposure
Description: as §1

[4] = tested on: acquired CDDP (cisplatin) resistant cell line PC-9/CDDP; assay: MTT growth inhibition, PC-9/CDDP; details: PC-9/CDDP cells, 72 hours drug exposure
Description: as §1

[5] = tested on: colon cancer cell line COLO201; assay: MTT growth inhibition, COLO201; details: COLO201 cells, 72 hours drug exposure
Description: as §1

[6] = tested on: lung adenocarcinoma cell line A549; assay: MTT growth inhibition, A549; details: A549 cells, 72 hours drug exposure
Description: as §1

[7] = tested on: squamous cell lung cancer cell line LC-S; assay: MTT growth inhibition, LC-S; details: LC-S cells, 72 hours drug exposure
Description: as §1

[8] = tested on: colon cancer cell line HCC-48; assay: MTT growth inhibition, HCC-48; details: HCC-48 cells, 72 hours drug exposure
Description: as §1

[9] = tested on: myelogenous leukemia cell line K562; assay: MTT growth inhibition, K562; details: K562 cells, 72 hours drug exposure
Description: as §1

[10] = tested on: acquired CDDP resistant cell line PC-14/CDDP; assay: MTT growth inhibition, PC-14/CDDP; details: PC-14/CDDP cells, 72 hours drug exposure
Description: as §1

[11] = tested on: small-cell lung cancer cell line PC-6; assay: MTT growth inhibition, PC-6; details: PC-6 cells, 72 hours drug exposure
Description: as §1

[12] = tested on: oral epithelium epidermal cancer cell line KB; assay: MTT growth inhibition, KB; details: KB cells, 72 hours drug exposure
Description: as §1

[13] = tested on: gastric cancer cell line MKN45; assay: MTT growth inhibition, MKN45; details: MKN45 cells, 72 hours drug exposure
Description: as §1

[14] = tested on: acquired multidrug resistant cell line K562/DOX; assay: MTT growth inhibition, K562/DOX; details: K562/DOX cells, 72 hours drug exposure
Description: as §1

[15] = tested on: gastric cancer cell line HSC-42; assay: MTT growth inhibition, HSC-42; details: HSC-42 cells, 72 hours drug exposure
Description: as §1

[16] = tested on: lung adenocarcinoma cell line PC-9; assay: MTT growth inhibition, PC-9; details: PC-9 cells, 72 hours drug exposure
Description: as §1

[17] = tested on: colon cancer cell line COLO320DM; assay: MTT growth inhibition, COLO320DM; details: COLO320DM cells, 72 hours drug exposure
Description: as §1

[18] = tested on: acquired SN-38 resistant cell line PC-6/SN2-5; assay: MTT growth inhibition, PC-6/SN2-5; details: PC-6/SN2-5 cells, 72 hours drug exposure
Description: as §1

[19] = tested on: lung adenocarcinoma cell line PC-14; assay: MTT growth inhibition, PC-14; details: PC-14 cells, 72 hours drug exposure
Description: as §1

[20] = Homo sapiens, read-out: 50% Growth inhibitory concentration (IC50) determined by MTT method

CCc1c2c(nc3ccc(OC(=O)N4CCC(N5CCCCC5)CC4)cc13)-c1cc3c(c(=O)n1C2)COC(=O)[C@]3(O)CC [Irinotecan, Irinotecan hydrochloride]
IC50 [1, 20]: 4.26 µg/mL
IC50 [2, 20]: 7.79 µg/mL
IC50 [3, 20]: 5.11 µg/mL
IC50 [4, 20]: 2.68 µg/mL
IC50 ([5]; Homo sapiens, COLO 201, read-out: 50% Growth inhibitory concentration (IC50) determined by MTT method): 0.979 µg/mL
IC50 [6, 20]: 5.63 µg/mL
IC50 [7, 20]: 18.9 µg/mL
IC50 [8, 20]: 1.11 µg/mL
IC50 [9, 20]: 2.3 µg/mL
IC50 [10, 20]: 4.03 µg/mL
IC50 [11, 20]: 0.691 µg/mL
IC50 [12, 20]: 2.23 µg/mL
IC50 ([13]; Homo sapiens, MKN-45, read-out: 50% Growth inhibitory concentration (IC50) determined by MTT method): 0.809 µg/mL
IC50 [14, 20]: 3.93 µg/mL
IC50 [15, 20]: 0.743 µg/mL
IC50 [16, 20]: 2.75 µg/mL
IC50 ([17]; Homo sapiens, COLO 320DM, read-out: 50% Growth inhibitory concentration (IC50) determined by MTT method): 1.78 µg/mL
IC50 [18, 20]: 2.85 µg/mL
IC50 [19, 20]: 4.67 µg/mL

CCc1c2c(nc3ccc(O)cc13)-c1cc3c(c(=O)n1C2)COC(=O)[C@]3(O)CC [SN-38, 7-ethyl-10-hydroxycamptothecin]
50% Growth inhibitory concentration (IC50) determined by MTT method [1]: 97.35 ng/mL
50% Growth inhibitory concentration (IC50) determined by MTT method [2]: 34.82 ng/mL
50% Growth inhibitory concentration (IC50) determined by MTT method [3]: 22.27 ng/mL
50% Growth inhibitory concentration (IC50) determined by MTT method [4]: 9.05 ng/mL
50% Growth inhibitory concentration (IC50) determined by MTT method [5]: 2.84 ng/mL
50% Growth inhibitory concentration (IC50) determined by MTT method [6]: 25.23 ng/mL
50% Growth inhibitory concentration (IC50) determined by MTT method [7]: 137.07 ng/mL
50% Growth inhibitory concentration (IC50) determined by MTT method [8]: 1.99 ng/mL
50% Growth inhibitory concentration (IC50) determined by MTT method [9]: 2.84 ng/mL
50% Growth inhibitory concentration (IC50) determined by MTT method [10]: 6.26 ng/mL
50% Growth inhibitory concentration (IC50) determined by MTT method [11]: 2.91 ng/mL
50% Growth inhibitory concentration (IC50) determined by MTT method [12]: 5.26 ng/mL
50% Growth inhibitory concentration (IC50) determined by MTT method [13]: 2.60 ng/mL
50% Growth inhibitory concentration (IC50) determined by MTT method [14]: 4.10 ng/mL
50% Growth inhibitory concentration (IC50) determined by MTT method [15]: 2.81 ng/mL
50% Growth inhibitory concentration (IC50) determined by MTT method [16]: 8.17 ng/mL
50% Growth inhibitory concentration (IC50) determined by MTT method [17]: 3.43 ng/mL
50% Growth inhibitory concentration (IC50) determined by MTT method [18]: 24.40 ng/mL
50% Growth inhibitory concentration (IC50) determined by MTT method [19]: 11.16 ng/mL
